Test results as given in patent US11433087B2, “Anti-tumor compound with high CD169 affinity, method thereof, and use thereof” (Xiamen Nuokangde Biological Technology Co., Ltd., priority 2017, dated 2022).

Key:
[1] = tested on: B16F10 cells; test: Phagocytic effects of macrophages (BMDM) on tumor cells, lactate dehydrogenase cytotoxicity test kit; assay type: cell-based, mouse; conditions: BMDM and B16F10 cells 5:1; compared with control group medium added with Neu5Ac; FIG. 5
Method: Taking out bone marrow of 10 week old mice, adding with a solution of potassium ammonium chloride (ACK), and then culturing cells of the bone marrow in an Iscove's modified dulbecco medium (IMDM) comprising 10% (volume ratio) fetal bovine serum (FBS) and 10 ng/mL macrophage […] stimulating factor to obtain bone marrow derived macrophages (BMDM). Culturing BMDM and B16F10 cells of a ratio of 5:1 respectively in an experimental group medium and a control group medium. Adding TCC-Neu5Ac to the experimental group medium, adding Neu5Ac of the same volume to the control group medium, detecting by Lactate dehydrogenase cytotoxicity test kit, selecting a 490 nm absorption peak in a microplate reader, and converting to phagocytic killing efficiency.

[2] = tested on: B16F10 cells; test: Anti-tumor effects in tumor-bearing mice orally administrated with the compound; assay type: in vivo, B6 mice (C57BL/6); conditions: subcutaneous B16F10 in C57BL/6 mice; oral 200 μL aqueous solution, 100 μmol, daily, 15 days; versus natural sialic acid; FIG. 10-13
Method: Culturing B16F10 cells in a 10 cm cell culture dish to a density of 80%, digesting with 2 mL tyrisin for 90 seconds, neutralizing with 2 mL medium, centrifuging under 300 g for 3 minutes, rinsing with PBS repeatedly, centrifuging once to remove any residual medium, adding PBS to resuspend and count an amount of the B16F10 cells, and injecting subcutaneously 1 million of the B16F10 cells into the of B6 mice (C57BL/6) for tumor planting;
Feeding 200 μL of an aqueous solution comprising the 100 μmol of the anti-tumor compound with high CD169 affinity of the present disclosure daily as an experimental group 2;
Feeding water solution with the same volume comprising natural sialic acid as a control group 2; and
After 15 days, removing hair from tumor areas of the B6 mice, taking pictures, taking out tumors from the B6 mice, and taking pictures for analysis.

[3] = tested on: B16F10 cells; test: Anti-tumor effects in tumor-bearing mice injected with the compound; assay type: in vivo, mice B6 (C57BL/6); conditions: subcutaneous B16F10 in C57BL/6 mice; tail vein injection of 100 mL PBS, 100 μmol, every two days, 15 days; versus 100 μmol natural sialic acid; FIG. 6-9
Method: Culturing B16F10 cells in a 10 cm cell culture dish to a density of 80%;
Digesting with 2 mL tyrisin for 90 seconds, neutralizing with 2 mL medium, centrifuging under 300 g for 3 minutes, rinsing with PBS repeatedly, centrifuging once to remove any remaining medium, and adding PBS to resuspend and count an amount of the B16F10 cells;
Injecting subcutaneously 1 million of the B16F10 cells into mice B6 (C57BL/6) for tumor planting, and then injecting […] PBS comprising the anti-tumor compound of the present disclosure with a concentration of 100 μmol from a tail vein of mice every two days as an experimental group 1;
Injecting PBS of the same volume comprising 100 μmol natural sialic acid as a control group 1, and the other conditions of the control group 1 are the same as the experimental group 1; and
After 15 days, removing hair from tumor areas of the mice, taking pictures (as shown in FIG. 6 and FIG. 7), taking out tumors from the mice, and taking pictures for analysis.

[4] = tested on: B16F10 cells; test: Tumor metastasis analysis model in mice; assay type: in vivo, B6 mice (C57BL/6); conditions: B16F10 injected from tail veins in C57BL/6 mice; 200 μL, 100 μmol, tail vein every two days, 15 days; versus 100 μmol natural sialic acid (Neu5Ac); FIG. 14
Method: Culturing B16F10 cells in a 10 cm cell culture dish to a density of 80%, digesting with 2 mL tyrisin for 90 seconds, neutralizing with 2 mL medium, centrifuging under 300 g for 3 minutes, rinsing with PBS repeatedly, centrifuging once to remove any residual medium, and adding PBS to resuspend and count an amount of the B16F10 cells.
Injecting 1 million of the B16F10 cells into B6 mice (C57BL/6) from tail veins for preparing a tumor metastasis analysis model. Then, injecting 200 μL of an aqueous solution comprising the 100 μmol of the anti-tumor compound with high CD169 affinity of the present disclosure every two days from tail veins as an experimental group 3, and injecting water solution with the same volume comprising 100 μmol of natural sialic acid (Neu5Ac) as a control group 3. After 15 days, removing hair from tumor areas of the B6 mice and taking pictures. Then, taking out tumors from the B6 mice and taking pictures for analysis. An ordinate position of a black solid circle indicates a number of the tumors transferred to lungs of a mouse of the experimental group 3. An ordinate position of one black solid square indicates a number of the tumors transferred to lungs of a mouse of the control group 3. It can be seen from FIG. 14 that the number of the tumors transferred to the lungs in the experimental group 3 is far lower than that in the control group 3. […]

[5] = tested on: human malignant glioma cells (U87); test: Toxicity in cells (counting dead cells, cell survival rate); assay type: cell-based; conditions: U87, different concentrations 0-100 μmol, 24 hours; FIG. 4
Method: Culturing human malignant glioma cells (U87) in the constant temperature incubator containing 5% CO2 at 37° C., and a seventh medium of the human malignant glioma cells is DMEM containing 10% fetal bovine serum;
Transferring the human malignant glioma cells to a confocal cell culture dish, culturing to a density of 50%, removing the seventh medium, adding an eighth medium comprising TCC-Neu5Ac of different concentrations from 0 to 100 μmol (100 μM), and further culturing for 24 hours; and
Removing the eighth medium comprising TCC-Neu5Ac, washing carefully with PBS for three times, adding a ninth medium, and counting dead cells of the human malignant glioma cells.
Counting results of the dead cells are shown in FIG. 4, wherein abscissa represents different concentrations of TCC Neu5Ac in the eight medium, and ordinate represents a cell survival rate of the human malignant glioma cells. […] Therefore, the anti-tumor compound with high CD169 affinity of the present disclosure has extremely low toxicity in the cells and has potential ability for human tumor treatment.

CC(=O)N[C@@H]1C(O)C[C@](O)(C(=O)O)OC1C(O)C(O)CNC(=O)c1cc2c(s1)-c1ccccc1OC2 (some centres unmarked) [TCC-Neu5Ac, 9-benzopyranothiophene-n-acetylneuraminic acid monosaccharide]
killing rate of phagocytes to tumors [1]: significantly higher
sizes of the tumors [2]: significantly smaller
sizes of the tumors [3]: significantly smaller
number of the tumors transferred to the lungs [4]: far lower
cell survival rate of the human malignant glioma cells [5]: does not differ much
